# Measured values taken from EP0060954A1, “Derivatives of fluorophenacyl amines and their therapeutic use” (LABORATOIRE L. LAFON Société anonyme dite:, priority 1981, dated 1982).
# “And” between values parts separate entries of the source, which are not always exact repeats. Identical values can stand only once.
# Experiments:
# souris [1] = assay: Spontaneous motility (actimeter); format: in vivo; conditions: mouse, recorded 30 min, 30 min after dosing
# Method: Une demi-heure après avoir reçu le CRL 40827, les souris (6 par dose, 12 témoins) sont placées en actimètre où leur motilité est enregistrée pendant 30 min.
# (§1) En procédant selon les modalités opératoires données ci-dessus pour le CRL 40827, on observe ce qui suit.
# [2] = test system: rat anesthésié au Nembutal; assay: Biliary secretion, rat anaesthetised with Nembutal; format: in vivo; conditions: 1 to 3 h after I.V. injection of 5 mg/kg and 25 mg/kg
# Method: (§2) Chez le chien anesthésié au Nembutal, le débit biliaire normal recueilli en 30 min est de 1,5 ml; le débit biliaire augmente après injection intraduodénale de CRL 40827 et passe à 1,75 ml pour 2,5 mg/kg de CRL 40827, à 2,25 ml pour 5 mg/kg et à 2,5 ml pour 10 mg/kg. Chez le rat anesthésié au Nembutal, le débit biliaire augmente 1 à 3 h après injection I.V. de CRL 40827 aux doses de 5 mg/kg et 25 mg/kg.
# [3] = test system: chien anesthésié au Nembutal; assay: Biliary secretion, dog anaesthetised with Nembutal; format: in vivo; conditions: normal 1,5 ml
# Method: as §2
# souris [4] = assay: Motility reduced by hypoxic aggression (acute hypobaric anoxia); format: in vivo; conditions: mouse
# Method: Une demi-heure après avoir reçu le CRL 40827, les souris (10 par dose, 20 témoins) sont soumises à une anoxie hypobare aiguë (dépression de 8 x 10^4 Pa en 90 s, détente de 45 s), puis elles sont placées en actimètre où leur motilité est enregistrée pendant 10 min.
# as §1
# homme = assay: Clinical use as sedative and antidepressant agents; format: in vivo; conditions: clinic
# souris [5] = assay: Motility reduced by habituation to the enclosure; format: in vivo; conditions: mouse; high dose 34 mg/kg
# Method: Après 18 h de séjour dans les actimètres, les souris (6 par dose, 12 témoins) reçoivent le CRL 40827. Elles sont aussitôt replacées dans leurs enceintes respectives et, 30 min plus tard, on enregistre leur motilité pendant 30 min.
# as §1
# rat = assay: Interaction with apomorphine, rat; format: in vivo; conditions: i.p. 30 min before apomorphine 0,5 mg/kg s.c.
# Method: (§3) Le CRL 40827, en solution dans de l'eau distillée, a été administré par voie intrapéritonéale sous un volume de 20 ml/kg chez la souris mâle et un volume de 5 ml/kg chez le rat mâle. 1°) - Toxicité
# Le CRL 40 827 est administré à des lots de 6 rats 30 min avant l'injection sous-cutanée de 0,5 mg/kg d'apomorphine.
# as §1
# souris mâles = assay: Intergroup aggressiveness test (number of fights after removal of the partition); format: in vivo; conditions: mouse; dose not given
# Source text: Des essais comparatifs ont été entrepris pour mettre en évidence quels sont les effets chez l'animal qui permettent de distinguer les produits selon l'invention de leurs homologues fluorés connus. Parmi ces essais, on a résumé ceux concernant les propriétés antiagressives. Plus précisément, on a évalué la diminution de l'agressivité intergroupes selon la technique suivante : a.près avoir séjourné pendant 3 semaines de part et d'autre d'une cloison opaque séparant leur cage par le milieu, des groupes de trois souris mâles de 20 g chacune environ reçoivent, par voie intrapéritonéale, les produits à tester en solution dans de l'eau distillée, les animaux témoins ne recevant que de l'eau distillée par voie intrapéritonéale. Une demi-heure plus tard, les deux groupes d'une même cage sont réunis par retrait de la cloison opaque et on note le nombre de combats qui surviennent en 10 min. On a utilisé trois cages pour chaque produit à tester et six cages pour le lot témoin ne recevant pas les produits à tester.
# Les résultats du tableau I ci-après donnent la diminution de l'agressivité intergroupes par rapport au lot témoin, tous les produits à tester étant administrés à la dose de 8 mg/kg par voie intrapéritonéale. […]
# souris [6] = assay: Asphyxic anoxia (gallamine triethiodide); format: in vivo; conditions: mouse; highest dose 34 mg/kg, 30 min before gallamine triethiodide i.p.
# Method: Des lots de 10 souris reçoivent le CRL 40827 30 min avant l'administration intrapéritonéale d: 34 mg/kg de triiodoéthy- late de gallamine. A la plus forte dose (34 mg/kg),le CRL 40827 empêche l'apparition des convulsions et de la mort chez 40% des animaux.
# as §1
# souris [7] = assay: Interaction with oxotremorine; format: in vivo; conditions: mouse
# Method: Le CRL 40827 est administré à des lots de 6 souris 30 min avant l'injection intrapéritonéale de 0,5 mg/kg d'oxotrémo- rine. On observe que, dès la dose de 0,5 mg/kg, le CRL 40827 antagonise l'action hypothermisante de l'oxotrémorine; cet effet est très net à 32 mg/kg.
# as §1
# souris [8] = assay: Four-plate test, traction and electroshock; format: in vivo; conditions: mouse, 30 min after dosing
# Method: Le test est pratiqué sur des lots de 10 souris, 30 min après l'administration de CRL 40827.
# as §1
# souris [9] = assay: Interaction with reserpine (hypothermia, ptosis); format: in vivo; conditions: mouse
# Method: Quatre heures après l'injection intrapéritonéale de 2,5 mg/kg de réserpine, des lots de 6 souris reçoivent le CRL 40827.
# as §1
# cobaye = assay: Local anaesthetic effect, intradermal injection, pin-prick test; format: in vivo; conditions: guinea pig, intradermal 0,2 ml, concentrations 0,5 and 1%
# Method: L'effet anesthésique a été étudié chez le cobaye après injection du CRL 40827 par voie intradermique sous un volume de 0,2 ml aux concentrations de 0,1, 0,5 et 1% (3 cobayes par dose). Chaque animal reçoit le sérum physiologique, la procaine et le CRL 40827 dans des zones délimitées.
# Le test qui consiste en une série de six piqûres de la zone injectée est réalisé 5, 10, 15, 20, 25 et 30 min après l'injection.
# [10] = test system: rat éveillé génétiquement hypertendu; assay: Cardiovascular action, awake genetically hypertensive rat; format: in vivo
# chien anesthésié = assay: Cardiovascular and respiratory action, anaesthetised dog; format: in vivo
# souris [11] = assay: Toxicity: maximal non-lethal dose DL-0, intraperitoneal; format: in vivo; conditions: mouse, i.p.
# Method: La dose maximale non mortelle, DL-0, est supérieure à 128 mg/kg et inférieure à 256 mg/kg, chez la souris, par voie I.P. 2°) - Action sur le SNC
# as §3
# La dose maximale non mortelle, DL-0, est supérieure à 64 mg/kg et inférieure à 128 mg/kg chez la souris mâle.
# Le CRL 40854, en solution dans de l'eau distillée, a été administré par voie intrapéritonéale sous un volume de 20 ml/kg chez la souris màle et de 5 ml/kg chez le rat màle.
# La dose maximale non mortelle DL-0 est supérieure à 128 mg/kg et inférieure à 256 mg/kg chez la souris.
# rats = assay: Interaction with amphetamine (stereotypies); format: in vivo, rat; conditions: rat
# Method: L'amphétamine (2 mg/kg) est injectée par voie intrapéritonéale à des lots de 6 rats, 30 min après l'administration de CRL 40827. […] Interaction avec la réserpine
# as §1
compound,measurement,setting,value
"CC(C)(C)NCC(O)c1ccccc1F (stereo not drawn) [CRL 40827, chlorhydratede 1-(2-fluorophényl)-2-tertiobutylamino-1-éthanol]",activité motrice spontanée,souris [1],ne modifie pratiquement pas
same,débit biliaire,[2],augmente
same,débit biliaire recueilli en 30 min,"[3]; dog, 5 mg/kg intraduodenal","2,25 ml"
same,débit biliaire recueilli en 30 min,"[3]; dog, 10 mg/kg intraduodenal","2,5 ml"
same,débit biliaire recueilli en 30 min,"[3]; dog, 2,5 mg/kg intraduodenal","1,75 ml"
same,récupération motrice après anoxie hypobare,souris [4],n'entraîne pas d'amélioration
same,résultats cliniques dans le domaine psychotrope en tant qu'agents sédatifs et antidépresseurs,homme,bons résultats
same,activité motrice (souris habituées à l'enceinte),souris [5],semble provoquer une reprise modérée
same,stéréotypies induites par l'apomorphine,rat,laisse inchangées
same,agressivité intergroupes / effet antiagressif,souris mâles,diminue l'agressivité intergroupes
same,animaux chez lesquels l'apparition des convulsions et de la mort est empêchée,souris [6],40%
same,signes de stimulation cholinergique périphérique (oxotrémorine),souris [7],laisse inchangés
same,tremblements provoqués par l'oxotrémorine,souris [7],ne modifie pas
same,action hypothermisante de l'oxotrémorine (antagonisme),souris [7]; 32 mg/kg,très net
same,action hypothermisante de l'oxotrémorine,"souris [7]; from 0,5 mg/kg, 30 min before oxotremorine 0,5 mg/kg i.p.",antagonise
same,effets convulsivants de l'électrochoc,souris [8],"à forte dose, s'oppose aux effets convulsivants"
same,incapacité motrice (traction),souris [8],ne provoque pas d'incapacité motrice majeure
same,nombre de passages punis (test des quatre plaques),souris [8],n'entraîne pas d'augmentation
same,ptôsis réserpinique,souris [9],sans modifier
same,hypothermie réserpinique,"souris [9]; from 0,5 mg/kg, 4 h after reserpine 2,5 mg/kg i.p.",combat nettement
same,effet anesthésique local,cobaye,présente un effet anesthésique local
same,pression artérielle et fréquence cardiaque,[10],hypotenseur et tachycardisant
same,minimal effective dose,"chien anesthésié; Canis lupus familiaris, dog, read-out: dose from which the effets hypertenseurs de la noradrénaline are diminished",1 mg/kg
same,pression artérielle et fréquence cardiaque,chien anesthésié; anaesthetised dog,hypotenseur et tachycardisant
same,dose of maximal effect on the effets hypertenseurs de la noradrénaline,chien anesthésié; dog,~10 mg/kg
same,débit cardiaque,chien anesthésié; in vivo,reste égal
same,débits sanguins locaux,chien anesthésié; in vivo,n'augmentent pas
same,respiration,chien anesthésié; in vivo,stimule la respiration
same,"résistances vasculaires des territoires explorés (vertébral, fémoral et rénal) et résistance périphérique totale",chien anesthésié; in vivo,diminue
same,travail du ventricule gauche et diastole,chien anesthésié; in vivo,diminue le travail du ventricule gauche et raccourcit la diastole
same,"dose maximale non mortelle, DL-0",souris [11],> 64 mg/kg and < 128 mg/kg
same,index de stéréotypies (amphétamine),rats; 4 mg/kg,diminution isolée
same,stéréotypies amphétaminiques,rats; amphetamine 2 mg/kg i.p. 30 min after the compound,ne modifie pas
